According to patent US20230057984A1, “NORMALIZATION OF CULTURE OF CORNEAL ENDOTHELIAL CELLS” (KYOTO PREFECTURAL PUBLIC UNIVERSITY CORPORATION, priority 2011, published 2023):

Key:
[1] = test system: Cynomolgus monkey corneal endothelial cells; experiment: PCR of Na+/K+-ATPase and ZO-1 mRNA in monkey corneal endothelial cells (Example 3); type: cell-based; details: monkey CEC treated with SB431542 vs fibroblast phenotype control
Protocol: Method of culturing and the like was conducted in a similar manner as the Comparative Examples. In particular, materials similar to those in Example 2 were used. • SB431542: this was obtained from TOCRIS (catalog number: 1614). • Antibodies to Na^+/K^+-ATPase: those obtained from MILLIPORE (catalog number: 05-369) were used. • Antibodies to ZO-1: mice, those obtained from INVITROGEN (catalog number: 339100) were used; and rabbits, those obtained from ZYMED LABORATORIES (catalog number: 61-7300) were used. • Antibodies to GAPDH: those obtained from ABCAM (catalog number: ab36840) were used. • Immunostaining and the like: cells cultured in a similar manner to Example 2 were fixed and immunostaining was performed on Na^+/K^+-ATPase and ZO-1, followed by taking an image using a fluorescence microscope. • Western blot method: similar to Example 1, a Western blot method was performed on the Na^+/K^+-ATPase, ZO-1, and GAPDH. • Realtime PCR method: in addition, PCR was performed for Na^+/K^+-ATPase, ZO-1, and GAPDH in the following method. The primers were purchased from an oligonucleotide synthesizing company, INVITROGEN, and desalted primer were used. […] Amplified DNA fragments were electrophoresed in a 1.5% agarose gel, and were detected by ethidium bromide staining.

HCEC = experiment: Consecutive treatments of cultured HCEC over several passages, observation of harmful effects; details: even after several passages
[2] = test system: Human corneal endothelial cells; experiment: Culture of human corneal endothelial cells with SB431542, cell form (Example 5); type: cell-based; details: HCEC, base culture medium with SB431542 1 μmol/L; SB431542-free cells transformed in a fibroblastic manner, multi-layered
Protocol: • Cynomolgus monkey corneal endothelial cells (MCEC; source of supply and culturing method): the MCECs were cultured by the improved-type protocol described previously [Koizumi N, et al. (2007) Invest Ophthalmol Vis Sci 48: 4519-4526], [Li W, et al. (2007) Invest Ophthalmol Vis Sci 48: 614-620]. Briefly speaking, eyeballs of cynomolgus monkeys, which were humanely killed for another purpose, were purchased (Nissei Bilis Co., Ltd., Ohtsu, Japan and Keari Co., Ltd., Wakayama, Japan) (the method is described above). The Descemet's membrane including corneal endothelial cells were exfoliated, and the corneal endothelial cells were mechanically exfoliated together with basement membranes, followed by treatment using dispase or collagenase (ROCHE catalog number: 10 103 586 001) and then primary culture. Typically, treatment was performed using 1 mg/mL collagenase A (Roche Applied Science, Penzberg, Germany) at 37° C. for 2 hours. For the culture medium, DMEM (INVITROGEN catalog number 12320) was used with 10% FBS (BIOWEST, catalog number: S1820-500) and 2 ng/ml basic FGF (INVITROGEN, catalog number: 13256-029) added thereto. […] In addition, after the cells were fixed, immunostaining was performed using ZO-1, Na^+/K^+-ATPase as a function-associated marker, followed by observation through a fluorescence microscope. […]

harmful effects with regard to the forms or functions (HCEC): not seen any clear, harmful effects
SMILES: NC(=O)c1ccc(-c2nc(-c3ccc4c(c3)OCO4)c(-c3ccccn3)[nH]2)cc1 [SB431542]
expression of Na+/K+-ATPase and ZO-1, mRNA level (PCR) [1]: strongly enhanced | cell form [2]: a layer of cells with a small difference in size of a polygonal shape
